Values after ≈ are worked out from the molar mass of the structure shown. Like-named read-outs stand apart in the source and are kept apart here.
Assays:
HCV GT 2a = test: Activity against HCV GT 2a (data not shown); type: cell-based
[1] = test system: HCV GT 4a (strain ED43) replicon; test: HCV GT 4a subgenomic replicon luciferase antiviral assay in Huh7.5-4a cells; type: cell-based; conditions: Hepatitis C virus, GT4A, 72 h; Huh7.5-4a, GT 4a (ED43), F-Luc, 3 days; read-out: EC50 HCV Replicon 4a
[2] = Water solubility by HPLC-UV after 24 h agitation; type: physicochemical; conditions: thermodynamic from solid, deionized water, ambient temperature
[3] = alamarBlue reduction cytotoxicity assay in replicon cells; type: cell-based; conditions: human, HCV Replicon 1b cells
[4] = test system: HCV GT 3a (strain S52) replicon; test: HCV GT 3a subgenomic replicon luciferase antiviral assay in Huh7.5-3a cells; type: cell-based; conditions: Hepatitis C virus, GT3A, 72 h; Huh7.5-3a, GT 3a (S52), F-Luc, 3 days; read-out: EC50 HCV Replicon 3a
[5] = test system: HCV GT 1b subgenomic reporter replicon (strain Con1); test: HCV GT 1b subgenomic replicon luciferase antiviral assay in Huh5-2 cells; type: cell-based; conditions: Huh5-2, GT 1b (Con1), F-Luc, 3 days, read-out: EC50 HCV Replicon 1b
NS5B = conditions: reported NS5B TP-2 inhibitors, Figure 1; cited from earlier work
[6] = test system: HCV GT-1b replicon containing Huh-7 cells; parameters: method as in earlier work; conditions: cited from earlier work
HCV GT 1b (Con1) = test: Drug combination of 11a with daclatasvir in Huh5-2 replicon cells; type: cell-based
[7] = test system: HCV GT-1b RNA (Con1 replicon); test: Viral RNA quantification by RT-qPCR in Huh5-2 replicon cells; type: cell-based; conditions: (+) strand HCV RNA by RT-qPCR, Huh5-2 cells, normalized to YWHAZ
[8] = Hepatitis C virus, GT1B, Huh-5-2, 72 h

Cc1nc(=O)c2cc(NC(=O)COc3ccc(Cl)cc3)ccc2n1-c1ccccc1 [11b, 2-(4-Chlorophenoxy)-N-(2-methyl-4-oxo-1-phenyl-1,4-dihydroquinazolin-6-yl)acetamide]
activity against GT 2a (HCV GT 2a): no activity | EC50 [1]: > 10 µM | solubility at 24 h [2]: 3.5 µg/mL (≈ 8.34 µM) | CC50 at 3 days [3]: 99.01 ± 0.09 µM | melting point: 254 °C | EC50 [4]: 11.7 ± 1.26 µM | EC50 [5, 8]: 1.38 ± 0.04 µM

CC1CCC(C(=O)N(c2cc(C#CC(C)(C)C)sc2C(=O)O)C(C)C)CC1 (stereo not drawn) [II]
IC50 (NS5B): 0.086 µM | EC50 [6]: 0.026 µM

Cc1ccc(OCC(=O)Nc2ccc3c(c2)c(=O)nc(C)n3-c2ccccc2)cc1 [11a, N-(2-Methyl-4-oxo-1-phenyl-1,4-dihydroquinazolin-6-yl)-2-(p-tolyloxy)acetamide]
Combinatory effect with daclatasvir (HCV GT 1b (Con1); 11a in combination with DCV, Huh5-2, in words): additive effect | CDI (coefficient of drug interaction) (HCV GT 1b (Con1); 11a with daclatasvir (DCV), Huh5-2): ≈ 1 | CDI (HCV GT 1b (Con1); DCV 30 pM + 11a 0.1 μM, Huh5-2): 0.949 | CDI (HCV GT 1b (Con1); DCV 30 pM + 11a 1 μM, Huh5-2): 0.995 | EC50 [1]: > 10 µM | solubility at 24 h [2]: 2.7 µg/mL (≈ 6.76 µM) | CC50 at 3 days [3]: 157.5 ± 0.03 µM | melting point: 268 °C | EC50 [4]: > 10 µM | EC50 [7]: 1.13 µM | EC50 [5, 8]: 0.984 µM | EC50 [5]: 0.98 ± 0.06 µM
